Data: patent US20220378809A1, “SYNTHETIC COMPOSITION FOR BALANCING THE BILE ACID PROFILE IN THE INTESTINE” (GLYCOM A/S, priority 2019, published 2022)

Assays:
colonic microbiota = assay: In vitro intestinal system simulating the colon of a human infected with C. difficile, after Vancomycin treatment; conditions: end of washout period
Text: An in vitro intestinal system is used to simulate the colon region in a human infected with C. difficile. The system is inoculated with fresh faecal samples from a healthy individual aged >65 years. The system is run for two weeks as a set up period to stabilise the system. The system is fed daily with a feed solution and with bile acids (primarily taurocholic acid and glycocholic acid). Afterwards, two different interventions are run in parallel for 4 weeks. • Intervention: daily addition of 2′-FL and LNnT (ratio 4:1 by weight) plus an antibiotic (Vancomycin) for seven days, followed by 2′-FL and LNnT (ratio 4:1 by weight) without antibiotic for the next 3 weeks (wash out period), • Control: an antibiotic (Vancomycin) for seven days, followed by no intervention for the next 3 weeks (wash out period). During the antibiotic treatment and washout periods, both the intervention and the control receive the same daily feed including bile acids. At three time points (end of set up period, end of antibiotic treatment, and end of wash out period), the microbiota community and bile acids are measured using 16S sequencing and HPLC-UV method, respectively. The in vitro intestinal system is run as in example 1 except that the intervention is a daily addition of 2′-FL plus an antibiotic (Vancomycin) for seven days, followed by 2′-FL alone for the next 3 weeks (wash out period). The control is as in example b 1. • Control: an antibiotic (Vancomycin) for seven days, followed by no intervention for the next 3 weeks (wash out period).

intestinal cells = conditions: cited from earlier work
[1] = test system: dextran sodium sulphate-induced colitis; conditions: mice; daily oral administration; cited from earlier work

With 2′-fucosyllactose [2′-FL] the “colonic bile acid metabolism” value (colonic microbiota) was “re-established”, the “restoration of the microbiota” value (colonic microbiota; 16S sequencing) was “restored” and the secondary bile acids (colonic microbiota; HPLC-UV) was “presence of the secondary bile acid deoxycholic acid (DCA)”. The “primary bile acids (cholic acid (CA) and glyco-chenodeoxycholic acid (GCDCA))” value (colonic microbiota; HPLC-UV, versus Vancomycin-only control) was “decrease in primary bile acids”.
In the case of `C[C@H](CCC(=O)O)[C@H]1CC[C@H]2[C@@H]3[C@H](O)C[C@@H]4C[C@H](O)CC[C@]4(C)[C@H]3CC[C@]12C` [CDCA, chenodeoxycholic acid], the “permeability of intestinal cells” value (intestinal cells) is given as “increased the permeability” and the “release of proinflammatory cytokines” value (intestinal cells) is given as “increased”.
For `C[C@H](CCC(=O)NCC(=O)O)[C@H]1CC[C@H]2[C@@H]3[C@@H](O)C[C@@H]4C[C@H](O)CC[C@]4(C)[C@H]3CC[C@]12C` [GUDCA, glycoursodeoxycholic acid], the “severity of dextran sodium sulphate-induced colitis” value [1] is given as “equally lowered the severity”.
For `C[C@H](CCC(=O)NCCS(=O)(=O)O)[C@H]1CC[C@H]2[C@@H]3[C@@H](O)C[C@@H]4C[C@H](O)CC[C@]4(C)[C@H]3CC[C@]12C` [TUDCA, tauroursodeoxycholic acid], the “severity of dextran sodium sulphate-induced colitis” value [1] is given as “equally lowered the severity”.
